No end group written: not given here.

The subject of series [1] is senescent T cells from a patient with lymphoma. Put plainly: 10 day in vitro culture of senescent lymphoma patient T cells with anti-CD3/CD28 beads, flow cytometric analysis. The format is cell-based, human. The note with it: for fraction of senescent T cells that lacked both CD27 and CD28: control 55.2%; for in vitro expansion of senescent T cells: as single agent or in combination. As for the experimental part: Monocytes were depleted from the T cell sample, as monocytes are known to inhibit T cell expansion in cultures containing anti-CD3/CD28 beads. The effect of a range of idelalisib concentrations were compared alone and in combination with 3 uM VIP peptide antagonist (VIPhyb) or 1 ug/ml mast cell chymase, an enzyme that degrades endogenous VIP on T cell activation, differentiation and proliferation. Numbers of viable T cells were measured during a 10 day in vitro cultures as well as the T cell differentiation and activation profiles, focusing on the relative numbers of T cells with a senescent phenotype in which co-stimulatory receptors CD27 and CD28 are both absent (CD27−CD28−), to an activated phenotype, in which either CD27, CD28, or both co-stimulatory receptors are present (CD27+CD28+).
Aliquots of frozen patient apheresis products or PBMC from ficolled whole blood were rapidly thawed and rested overnight in complete RPMI 1640 supplemented with 10% fetal bovine serum, 100 U/mL penicillin, 100 μg/mL streptomycin, and 50 μM 2-mercaptoethanol (complete media). The following day, red blood cells were removed from apheresis products by ficoll gradient. The leukocytes were then enriched for T cells using an EasySep human T cell enrichment kit according to manufacturer's instructions. Cells were plated in 200 μL of complete media in each well of a 96 well flat-bottom plate. Compounds were added at the indicated concentrations, and the DMSO concentration was normalized to 0.1% for all wells. Anti-CD3/CD28 beads were added at a 1:1 bead:cell ratio. On day 7 post-stimulation, cells from each treatment were transferred to new media. Fresh compounds and beads were then added, and the cells were cultured for an additional 3 days. On day 10 post-initial stimulation, the beads were removed, and the cells were stained for flow cytometric analysis.
Cells were washed twice in PBS. The cells were also stained using a fixable viability dye. Surface markers were then stained by adding fluorochrome-conjugated antibodies to CD3, CD4, CD8, CD27, CD28, CD45RA, CD45RO, PD-1, and CCR7. To assess proliferation, half the cells were evaluated for expression of Ki67. Ki67 staining was performed using a FoxP3 intracellular staining kit. Just prior to running samples, Accucheck™ counting beads were added to each tube. Samples were acquired on a BD FACS Aria, and analysis was performed using FlowJo™ software. Viable cells were used in the analysis. The absolute numbers of cells was calculated for each population according to instructions provided by the manufacturer of the Accucheck™ counting beads.
A general note: In flow cytometry, cells or beads pass a laser one at a time.

Series [2] concerns DLBCL patient T cells. Description: DLBCL patient T cell expansion for 14 days with CD3/CD28 beads and IL-2. The format is cell-based, human.
For series [3], the system named is Bcl-2. Put plainly: Bcl-2 blot of protein lysates from patient T cell expansion cultures. Format: cell-based, human. The note with it: lysates on days 7 and 14; actin loading control. As for the experimental part: Protein lysates from patient T cell expansion cultures were prepared on days 7 and 14. Samples were run on an SDS-PAGE gel prior to transfer to a nitrocellulose membrane. The membrane was then probed for the pro-survival Bcl-2 protein, stripped, and then re-probed for actin as a loading control.

Series [4] deals with E.G7-OVA cells. Put plainly: E.G7-OVA lymphoma model, adoptive transfer of T cells expanded with the compounds. Format: in vivo, Mice. The note with it: OVA-expressing lymphoma model; T cells expanded 3 days with CD3/CD28 beads and IL-2, injected intravenously on day 7 of tumor growth. As for the experimental part:
Mice were injected subcutaneously with 5×10^5 E.G7-OVA cells that were allowed to grow for 7 days until a palpable tumor formed. During this period, OT-I, OT-II, and B6 T cells were expanded with CD3/CD28 beads in the presence of IL-2 and the indicated compounds for 3 days. On day 7 of tumor growth, mice were injected intravenously with a combination of expanded OT-I, OT-II, and B6 T cells (2×10^6 OT-I, 1×10^6 OT-II, and 2×10^6 B6 cells) or 2×10^6 B6 T cells as a control. Mice were then monitored for tumor growth that was calculated as (L×W^2)/2. FIG. 5B is a tumor growth curve showing the rate of growth among groups over time. Expansion of mouse T cells in the presence of Idelalisib, VIPhyb, or a combination of both enhances their therapeutic efficacy in an OVA-expressing lymphoma model.

For series [5], the system named is luciferase B6 splenic T cells. Put plainly: One-way mixed lymphocyte reaction (MLR), luciferase B6 splenic T cells with irradiated FVB splenocytes. The format is cell-based, mouse. The note with it: 3 days, daily addition of VIP and/or VIPhyb, 0-10 mmol/L [sic]. As for the experimental part: Proliferation of luciferase B6 splenic T cells cultured for 3 days in MLR with irradiated FVB splenocytes, with daily addition of VIP and/or VIPhyb to achieve the concentrations shown (0-10 mmol/L).
To explore the role of VIP signaling in allo-immune responses, one-way mixed lymphocyte reactions (MLR) were performed containing VIP and/or the antagonistic VIPhyb peptide. Addition of VIP decreased Luciferase T-cell proliferation in a dose-dependent manner, while adding VIPhyb increased T-cell proliferation.

The conditions of series [6]: cited from earlier work.
Series [7] concerns luciferase-expressing splenic T cells from B6 Luciferase mice. Put plainly: Bioluminescent MLR, B6 Luciferase splenic T cells with irradiated FVB splenic T cells (VIP, VIPhyb, VIPhyb-NP). Format: cell-based, mouse. The following applies: 0 ug/mL to 975 ug/mL. An excerpt:
Splenocytes were extracted from WT and VIP-KO mice treated with B16-F0 and B16-F10 melanoma, and analyzed with flow cytometry for Granzyme B (GrZ B) and CD8 expression. VIPhyb was conjugated to a biocompatible, non-toxic 30 nm NP through emulsion polymerization and tested for purity and stability. A mixed lymphocyte reaction (MLR) using luciferase-expressing splenic T cells from B6 Luciferase mice were co-cultured with irradiated splenic T cells from FVB mice. VIP, VIPhyb, and VIPhyb-NP at concentrations of 0 ug/mL to 975 ug/mL were added to the MLR on 3 consecutive days and their effect on T cell proliferation assessed with bioluminescent imaging.

The subject of series [8] is luciferase positive splenic T cells (B6 Luc). Description: One-way allogeneic MLR, B6 Luc T cells with irradiated B6 Albino stimulator cells, IVIS average radiance. The format is cell-based, mouse. As for the experimental part:
Bioluminescent image of a 96-well MLR plate.
A one-way allogeneic mixed lymphocyte reaction (MLR) between luciferase positive splenic T cells (B6 Luc) and 20 Gy irradiated stimulator cells from B6 Albino mice were co-cultured at 37° C. in a 96-well black plate. VIPhyb-NP in concentrations 0-2.5 uM was added to each well, followed by VIP in concentrations of 0-10 uM, 30 minutes later. This treatment was administered daily for 3 days, and an IVIS spectrum was used to quantify photon intensity, which correlates to cell number, on day 3. An increase in average radiance indicates an increase in T cell proliferation.

The test system of series [9] is T-cells from the anergic lymphoma patient. Put plainly: Culture of sorted lymphoma patient T-cells with anti-CD3/anti-CD28 beads (Ki67, PD-1 by flow cytometry). The format is cell-based, human. The note with it: addition of IL 12 to the cultures. An excerpt: Using high-speed cell sorting subsets of T-cells were isolated defined by their levels of CD27 and CD28 expression from the patient with relapsed lymphoma and a healthy control. CD3 positive T-cells with each of the four phenotypes defined by CD27 and CD28 expression were sorted and cultured in vitro in the presence of anti-CD^3/anti-CD28 beads. Total T-cells from healthy donors had 100% expression of the Ki67 proliferation marker following four days of culture. However, the corresponding total T-cell population from the patient with anergic T-cells following treatment for lymphoma had only 90% of T-cells expressing the Ki67 marker.
Following the daily addition of 3 uM VIPhyb to these cultures, the proportion of Ki67 positive T-cells from the anergic lymphoma patient was increased to 100%. […] In contrast, the T-cell subsets lacking expression of either CD27 or CD28 or both markers had impaired proliferated response when incubated with the anti-CD3/CD28 beads.
Addition of the antagonist VIPhyb augmented T-cell proliferation in the subsets lacking either CD27 or CD28.

The mark [10] stands for this setting: inclusion during T cell activation.

Turning to `CC[C@H](Nc1ncnc2[nH]cnc12)c1nc2cccc(F)c2c(=O)n1-c1ccccc1` [idelalisib, (S)-2-(1-(9H-purin-6-ylamino)propyl)-5-fluoro-3-phenylquinazolin-4(3H)-one], the “fraction of senescent T cells that lacked both CD27 and CD28” value in [1] (10 nM idelalisib) is 16.1%. The “numbers of effector memory T cells (Tem)” value in series [1] (10-day cultures) is given as “increased”. Moreover, in [1], the “in vitro expansion of senescent T cells” value is listed as “significantly expanded”. For the same molecule, the “proportion of T cells co-expressing CD27 and CD28” value in series [1] (idelalisib 1 uM or 100 nM, compared to control cultures) was “significantly increased”. For the same molecule, in series [2], the “frequency of CD27+CD28+ cells” value is reported as “increases” and the “frequency of CD27−CD28− cells” value was “decreasing”. In addition, in series [2] (setting [10]), the “number of viable T cells obtained” value is recorded as “increases”; the “proportion of naïve and central memory cells” value is given as “increases”. Besides, the “expression of Bcl-2 in lymphoma patient T cells” value in [3] is listed as “increased”. Also, in series [4], the “therapeutic efficacy of mouse T cells expanded in presence of the compounds” value is “enhances”.

On to HSDAVFTDNYTRLRKQMAVKKYLNSILN [VIP], for which the “T-cell proliferation in MLR” value in series [5] is given as “decreased”. Also, in [6], the half-life in vivo entry is on record as “less than two”.

Turning to “VIPhyb-NP: VIPhyb with C-terminal linker (SEQ ID NO: 13) conjugated to a 30 nm poloxamer-stabilized polypropylene sulfide nanoparticle (KPRRPYTDNYTRLRKQMAVKKYLNSILNGGGGSC; also: conjugated to polypropylene sulfide nanoparticle)”, the “dose dependence of effect on T cell proliferation” value in series [7] is recorded as “dose-dependent”. Besides, the “effect on inhibitory effects of VIP on T cell proliferation in vitro” value in series [7] (added on 3 consecutive days) was “counteracted the inhibitory effects of VIP”. In addition, the “average radiance (T cell proliferation)” value in series [8] (VIPhyb-NP 0-2.5 uM daily for 3 days, read on day 3) is “significant dose-dependent increase”. The “effect on immunosuppressive effects of VIP” value in series [8] (VIPhyb-NP 0-2.5 uM, then VIP 0-10 uM 30 minutes later) is recorded as “able to counteract the immunosuppressive effects of VIP”.

B1: IL 12: IL 12 added to T-cell cultures (protein, UniProt P29459 23-219; P29460 23-328, looked up)
Interleukin-12 subunit alpha: RNLPVATPDPGMFPCLHHSQNLLRAVSNMLQKARQTLEFYPCTSEEIDHEDITKDKTSTVEACLPLELTKNESCLNSRETSFITNGSCLASRKTSFMMALCLSSIYEDLKMYQVEFKTMNAKLLMDPKRQIFLDQNMLAVIDELMQALNFNSETVPQKSSLEEPDFYKTKIKLCILLHAFRIRAVTIDRVMSYLNAS
Interleukin-12 subunit beta: IWELKKDVYVVELDWYPDAPGEMVVLTCDTPEEDGITWTLDQSSEVLGSGKTLTIQVKEFGDAGQYTCHKGGEVLSHSLLLLHKKEDGIWSTDILKDQKEPKNKTFLRCEAKNYSGRFTCWWLTTISTDLTFSVKSSRGSSDPQGVTCGAATLSAERVRGDNKEYEYSVECQEDSACPAAEESLPIEVMVDAVHKLKYENYTSSFFIRDIIKPDPPKNLQLKPLKNSRQVEVSWEYPDTWSTPHSYFSLTFCVQVQGKSKREKKDRVFTDKTSATVICRKNASISVRAQDRYYSSSWSEWASVPCS
In the case of B1, the “proliferation fraction of T-cells, CD28 negative and CD27 negative subsets” value in series [9] is given as “significant impact in increasing the proliferation fraction of T-cells that were CD28 negative but not those that were CD27 negative”.

B2: mast cell chymase: human mast cell chymase (CMA1), an enzyme that degrades endogenous VIP (protein, UniProt P23946 22-247, looked up)
Chymase: IIGGTECKPHSRPYMAYLEIVTSNGPSKFCGGFLIRRNFVLTAAHCAGRSITVTLGAHNITEEEDTWQKLEVIKQFRHPKYNTSTLHHDIMLLKLKEKASLTLAVGTLPFPSQFNFVPPGRMCRVAGWGRTGVLKPGSDTLQEVKLRLMDPQACSHFRDFDHNLQLCVGNPRKTKSAFKGDSGGPLLCAGVAQGIVSYGRSDAKPPAVFTRISHYRPWINQILQAN
Regarding B2, in [1] (1 μg per ml mast cell chymase), the “fraction of senescent T cells that lacked both CD27 and CD28” value stood at 37.4%. Further, the “in vitro expansion of senescent T cells” value in series [1] was “significantly expanded”.

The values are drawn from patent US11850263B2, “Nanoparticles conjugated with vasoactive intestinal peptide antagonists” (Emory University, priority 2017, dated 2023).
